Experimental data: article PMC11327210, “A first-in-human phase I trial of daily oral zelenirstat, a N-myristoyltransferase inhibitor, in patients with advanced solid tumors and relapsed/refractory B-cell lymphomas” (Investigational New Drugs, 2024)

Experiments:
[1] = system: advanced solid tumors and relapsed/refractory (R/R) B-cell lymphomas; test: Anticancer activity in phase I patients (RECIST 1.1 / Lugano, Kaplan-Meier); assay type: in vivo, human; details: for No. of patients with best response SD: evaluable patients n = 24
Protocol: Tumor response assessments using CT imaging were performed every two cycles. RECIST 1.1 [11] or the Lugano Response Criteria for Lymphoma was used to determine tumor response and disease progression. For B-cell NHL patients with PET-CT at baseline, PET-CT was repeated after the sixth cycle to confirm complete response or disease progression. Patient archival specimens and blood samples were submitted for exploratory molecular analyses. Descriptive statistics were used for demographic, safety, and efficacy data. Categorical data were summarized using frequency counts and percentages. Time-to-event variables were analyzed by Kaplan-Meier methods. Weighted trajectory analysis for health outcomes used the Chauhan methodology.

[2] = clinical; details: human, in vivo; for AUC(0-t): AUC0 − 24 (h*ng/mL) (mean, SD); for Cmax: Cmax (ng/ml) (mean, SD)
Protocol: Peripheral blood samples were collected over six time points in the first 8 h of Cycle 1, Day 1 (C1D1), and again on C1D15. Pre-treatment Day 1 levels were obtained with every subsequent cycle.

[3] = MTD cohort 210 mg daily (n = 7) vs lower dose cohorts (n = 17)

**Q.** Which “Overall Survival (Kaplan-Meier)” value [1, 3] does the source give for Cc1c(NS(=O)(=O)c2c(Cl)cc(-c3ccnc(N4CCNCC4)c3)cc2Cl)c(CC(C)C)nn1C [zelenirstat] here?
**A.** The value was “statistically significantly longer overall survival”.

**Q.** What about the “Progression-Free Survival (Kaplan-Meier)” value [1, 3] of the same molecule?
**A.** The value was “statistically significantly longer PFS”.

**Q.** And the objective responses ([1]; all dose cohorts)?
**A.** The objective responses was “No objective responses”.

**Q.** And the “No. of patients with best response SD” value ([1]; dose level 2: 40 mg, pancreatic adenocarcinoma)?
**A.** The value was 1.

**Q.** And the “No. of patients with best response SD” value ([1]; dose level 5: 140 mg, CRC)?
**A.** Its value is 1.

**Q.** And the “No. of patients with best response SD” value ([1]; dose level 6: 210 mg, CRC (2), ovarian (2), appendiceal carcinoma)?
**A.** The value was 5.

**Q.** And the “No. of patients with best response SD” value ([1]; dose level 7: 280 mg, after DLT modified to 210 mg daily, bladder)?
**A.** The value was 1.

**Q.** And the “Stable disease as best response, patients” value ([1]; eight of 29 patients, all dose cohorts)?
**A.** Its value is 28%.

**Q.** What about the “reduction in serum carcinoembryonic antigen (CEA) level” value ([1]; one patient, metastatic colon adenocarcinoma, 210 mg) of the same molecule?
**A.** The value was 48%.

**Q.** And the duration on zelenirstat ([1]; one patient, metastatic colon adenocarcinoma, 210 mg, SD, continuing)?
**A.** Its duration on zelenirstat is ≥ 420 days.

**Q.** What about the “reduction in sum of longest dimensions of the target lesions” value ([1]; one patient, metastatic colon adenocarcinoma, 210 mg, ongoing) of the same molecule?
**A.** The value was 13%.

**Q.** What about the “reduction in cancer antigen 125 (CA125)” value ([1]; one patient, refractory ovarian cancer, 210 mg) of the same molecule?
**A.** Its value is 20%.

**Q.** What about the half-life ([2]; half-life values across the dose cohorts) of the same molecule?
**A.** The half-life was 7.67 to 12 h.

**Q.** And the Tmax ([2]; maximum Tmax value in patients taking PPI)?
**A.** Its Tmax is ~8 h.

**Q.** And the half-life ([2]; mean terminal half-life across the dose cohorts)?
**A.** The half-life was 6.7 to 9.5 h.

**Q.** And the Tmax ([2]; median Tmax range in patients taking proton pump inhibitors (PPI))?
**A.** The Tmax was 1 to 6 h.

**Q.** And the AUC(0-t) ([2]; po, 20 mg)?
**A.** Its AUC(0-t) is 1580 ng·h/mL.

**Q.** What about the Cmax ([2]; po, 20 mg) of the same molecule?
**A.** The Cmax was 359 ng/mL.

**Q.** And the Tmax ([2]; po, 20 mg, Tmax (h) (median, range))?
**A.** Its Tmax is 2 h.

**Q.** What about the half-life ([2]; po, 20 mg, t1/2 (h) (mean, SD)) of the same molecule?
**A.** The half-life was 6.7 h.

**Q.** What about the AUC(0-t) ([2]; po, 40 mg) of the same molecule?
**A.** Its AUC(0-t) is 4820 ng·h/mL.

**Q.** What about the Cmax ([2]; po, 40 mg) of the same molecule?
**A.** Its Cmax is 848 ng/mL.

**Q.** What about the half-life ([2]; po, 40 mg, t1/2 (h) (mean, SD)) of the same molecule?
**A.** Its half-life is 9.2 h.

**Q.** What about the AUC(0-t) ([2]; po, 70 mg) of the same molecule?
**A.** The AUC(0-t) was 5650 ng·h/mL.

**Q.** What about the Cmax ([2]; po, 70 mg) of the same molecule?
**A.** The Cmax was 665 ng/mL.

**Q.** And the Tmax ([2]; po, 70 mg, Tmax (h) (median, range))?
**A.** The Tmax was 3.9 h.

**Q.** And the half-life ([2]; po, 70 mg, t1/2 (h) (mean, SD))?
**A.** Its half-life is 9.5 h.

**Q.** What about the AUC(0-t) ([2]; po, 100 mg) of the same molecule?
**A.** Its AUC(0-t) is 24700 ng·h/mL.

**Q.** What about the Cmax ([2]; po, 100 mg) of the same molecule?
**A.** Its Cmax is 2300 ng/mL.

**Q.** What about the Tmax ([2]; po, 100 mg, Tmax (h) (median, range)) of the same molecule?
**A.** The Tmax was 4 h.

**Q.** What about the half-life ([2]; po, 100 mg, t1/2 (h) (mean, SD)) of the same molecule?
**A.** Its half-life is 12 h.

**Q.** And the AUC(0-t) ([2]; po, 140 mg)?
**A.** Its AUC(0-t) is 11900 ng·h/mL.

**Q.** And the Cmax ([2]; po, 140 mg)?
**A.** The Cmax was 1770 ng/mL.

**Q.** What about the Tmax ([2]; po, 140 mg, Tmax (h) (median, range)) of the same molecule?
**A.** The Tmax was 1 h.

**Q.** And the half-life ([2]; po, 140 mg, t1/2 (h) (mean, SD))?
**A.** The half-life was 7.2 h.

**Q.** What about the AUC(0-t) ([2]; po, 210 mg) of the same molecule?
**A.** Its AUC(0-t) is 14700 ng·h/mL.

**Q.** What about the Cmax ([2]; po, 210 mg) of the same molecule?
**A.** The Cmax was 1770 ng/mL.

**Q.** And the Tmax ([2]; po, 210 mg, Tmax (h) (median, range))?
**A.** The Tmax was 3 h.

**Q.** What about the half-life ([2]; po, 210 mg, t1/2 (h) (mean, SD)) of the same molecule?
**A.** Its half-life is 7.8 h.

**Q.** And the Tmax ([2]; po, median Tmax values across the dose cohorts)?
**A.** The Tmax was 1 to 4 h.

**Q.** And the half-life ([2]; po, terminal half-lives, average)?
**A.** The half-life was 10 h.

**Q.** What about the Tmax ([2]; po, time of peak plasma concentrations) of the same molecule?
**A.** The Tmax was 2 h.
